From patent US8865724B2, “Preparation of 2-methyl-4-amino-5(substituted-1H-1,2,3-triazolyl)methylpyrimidine derivatives and microbicidal activity thereof” (Central China Normal University, priority 2011, dated 2014)
Read-outs that look alike come from different tables or passages of the source.

Legend:
[1] = tested on: Cucumber Angular Leaf Spot; experiment: Microbicidal activity on cucumber seedlings, spray then inoculation (Embodiment 7); conditions: for pest or weed control at 500 µg/g: Cucumis sativus, read-out: Cucumber bacterial spot (%), controlling effect
Description: Testing Materials: Strain: Cucumber Angular Leaf Spot
Testing method: a cucumber seedling at the stage of 2 seminal leaves was inoculated by spraying a suspension of Cucumber Angular Leaf Spot. Testing agents and control agents were sprayed uniformly on the seminal leaves at A.M. of a sunshine day respectively. After 2 hours, the leaves were inoculated with pathogenic microbes and cultured at humidity. After full occurrence of disease in control group, state of illness was examined according to grading standards, and the controlling effects were measured.

[2] = tested on: Cucumber Angular Leaf Spot; experiment: Microbicidal activity on cucumber seedlings, spray then inoculation (Embodiment 8); conditions: for pest or weed control at 500 µg/g: Cucumis sativus, read-out: Cucumber Angular Leaf Spot Average inhibition rate (%)
Description: (§1) (Pseudomonassyringaepv. tomato (Okabe) Young, Dye & Wilkie), Cucumber Angular Leaf Spot, Rice Sheath Blight Disease (Rhizoctonia solani), Corynespora Leaf Spot of Cucumber (Corynespora cassiicola), Downy Mildew of Cucumber (Cucumber Downy Mildew).
(§2) Testing agents and control agents were sprayed uniformly at A.M. of a sunshine day on the cucumber seminal leaves. After 2 hours, the leaves were inoculated with pathogenic microbes and cultured at humidity. […] Strip inoculation is used for Rice Sheath Blight Disease and phytophthora blight of pepper, in which the liquor was sprayed and after 2 hours, inoculation of strips was performed followed by culturing at humidity. After full occurrence of diseases in the control group, state of illness was examined according to grading standards, and a disease index and inhibition rate were calculated.

anthracnose of cucumber = experiment: Spawn growth rate on agar plates (Embodiment 9); format: cell-based, GloeosporiumorbiculareArs; conditions: 48 h; testing concentration of 100 μg/g; Table 5
[3] = tested on: Rice Sheath Blight Disease; experiment: Microbicidal activity, spray then strip inoculation (Embodiment 8); conditions: Oryza sativa, read-out: Rice Sheath Blight Disease Average inhibition rate (%)
Description: as §1, §2

gray mold of cucumber = experiment: Spawn growth rate on agar plates (Embodiment 9); format: cell-based, Botrytis cinerea; conditions: 48 h; for inhibition of growth at 100 µg/g: testing concentration of 100 μg/g, read-out: Gray mold of cucumber Average inhibition rate (%)
wheat scab = experiment: microbe, parasite or virus in culture; format: cell-based, Gibberella zeae; conditions: 48 h, read-out: Wheat scab Average inhibition rate (%)
[4] = tested on: Corynespora Leaf Spot of Cucumber; experiment: Microbicidal activity on cucumber seedlings, spray then spore inoculation (Embodiment 8); conditions: Corynespora, in Cucumis sativus, read-out: Corynespora Leaf Spot of Cucumber Average inhibition rate (%)
Description: as §1, §2

Downy Mildew of Cucumber = experiment: as above; conditions: Cucumis sativus, read-out: Downy Mildew of Cucumber Average inhibition rate (%)
Description: as §1, §2

tobacco brown spot = experiment: microbe, parasite or virus in culture; format: cell-based, Alternaria alternate (Fries) Keissler; conditions: 48 h, testing concentration of 100 μg/g; Table 4; read-out: Tobacco brown spot Average inhibition rate (%)
early blight of tomato = experiment: Spawn growth rate on agar plates (Embodiment 9); format: cell-based, Alternaria solania; conditions: 48 h, testing concentration of 100 μg/g
[5] = tested on: Rice Sheath Blight Disease (sheath and culm blight of rice); experiment: Spawn growth rate on agar plates (Embodiment 9); format: cell-based, Rhizoctonia solani; conditions: 48 h
[6] = Concentration 12.5 μg/g, Table 8

SMILES: S=c1[nH]nc(NCNc2n[nH]c(=S)s2)s1 [Bismerthiazol, reference compound]
- Cucumber bacterial spot (%), controlling effect ([1]; testing concentration of 500 μg/g, cucumber seedling): 73.14%
- Cucumber Angular Leaf Spot Average inhibition rate (%) ([2]; testing concentration of 500 μg/g): 73%

SMILES: Cc1ncc(Cn2cc(COc3ccc(Cl)cc3)nn2)c(N)n1 [Compound 2]
- pest or weed control at 500 µg/g [2]: 60%
- inhibition of growth at 100 µg/g (anthracnose of cucumber): 50%
- pest or weed control at 500 µg/g [3]: 80%
- inhibition of growth at 100 µg/g (gray mold of cucumber; Table 4): 73%
- melting point: 168 to 170 °C
- inhibition of growth at 100 µg/g (wheat scab): 51%
- pest or weed control at 500 µg/g [4]: 55%
- pest or weed control at 500 µg/g (Downy Mildew of Cucumber): 75%
- inhibition of growth at 100 µg/g (tobacco brown spot): 52%

SMILES: Cc1ncc(Cn2cc(COc3cccc(C(F)(F)F)c3)nn2)c(N)n1 [Compound 4]
- inhibition of growth at 100 µg/g (early blight of tomato; Table 5): 51%
- pest or weed control at 500 µg/g [2]: 60%
- inhibition of growth at 100 µg/g (anthracnose of cucumber): 65%
- pest or weed control at 500 µg/g [3]: 60%
- inhibition of growth at 100 µg/g (gray mold of cucumber; Table 4): 77%
- melting point: 160 to 161 °C
- pest or weed control at 500 µg/g [4]: 70%
- pest or weed control at 500 µg/g (Downy Mildew of Cucumber): 35%
- inhibition of growth at 100 µg/g (tobacco brown spot): 66%

SMILES: Cc1ccc(Cl)c(OCc2cn(Cc3cnc(C)nc3N)nn2)c1 [Compound 5]
- pest or weed control at 500 µg/g [2]: 50%
- pest or weed control at 500 µg/g [3]: 80%
- inhibition of growth at 100 µg/g (gray mold of cucumber; Table 4): 67%
- melting point: 184 to 185 °C
- pest or weed control at 500 µg/g [4]: 70%
- pest or weed control at 500 µg/g (Downy Mildew of Cucumber): 70%
- inhibition of growth at 100 µg/g (tobacco brown spot): 56%

SMILES: Cc1ncc(Cn2cc(COc3ccc(C(=O)O)cc3)nn2)c(N)n1 [Compound 7]
- pest or weed control at 500 µg/g [2]: 55%
- pest or weed control at 500 µg/g [3]: 70%
- inhibition of growth at 100 µg/g (gray mold of cucumber; Table 4): 67%
- melting point: > 260 °C
- pest or weed control at 500 µg/g [4]: 70%
- pest or weed control at 500 µg/g (Downy Mildew of Cucumber): 40%
- inhibition of growth at 100 µg/g (tobacco brown spot): 57%

SMILES: Cc1ncc(Cn2cc(COc3ccc(Cl)cc3Cl)nn2)c(N)n1 [Compound 10]
- pest or weed control at 500 µg/g [2]: 60%
- inhibition of growth at 100 µg/g (anthracnose of cucumber): 64%
- pest or weed control at 500 µg/g [3]: 70%
- inhibition of growth at 100 µg/g (gray mold of cucumber; Table 4): 56%
- melting point: 175 to 177 °C
- pest or weed control at 500 µg/g [4]: 70%
- pest or weed control at 500 µg/g (Downy Mildew of Cucumber): 50%
- inhibition of growth at 100 µg/g (tobacco brown spot): 58%

SMILES: Cc1ncc(Cn2cc(COc3cccc(C)c3C)nn2)c(N)n1 [Compound 14]
- pest or weed control at 500 µg/g [2]: 60%
- pest or weed control at 500 µg/g [3]: 70%
- inhibition of growth at 100 µg/g (gray mold of cucumber; Table 4): 54%
- melting point: 202 to 204 °C
- pest or weed control at 500 µg/g [4]: 90%
- pest or weed control at 500 µg/g (Downy Mildew of Cucumber): 35%
- inhibition of growth at 100 µg/g (tobacco brown spot): 60%

SMILES: Cc1ncc(Cn2cc(COc3ccc([N+](=O)[O-])cc3Cl)nn2)c(N)n1 [Compound 15]
- pest or weed control at 500 µg/g [2]: 60%
- inhibition of growth at 100 µg/g (anthracnose of cucumber): 57%
- pest or weed control at 500 µg/g [3]: 60%
- inhibition of growth at 100 µg/g (gray mold of cucumber; Table 4): 44%
- melting point: 194 to 196 °C
- pest or weed control at 500 µg/g [4]: 80%
- pest or weed control at 500 µg/g (Downy Mildew of Cucumber): 30%

SMILES: Cc1ncc(Cn2nnc(COc3ccc(C#N)cc3)c2I)c(N)n1 [Compound 31]
- inhibition of growth at 100 µg/g (early blight of tomato; Table 6): 70%
- inhibition of growth at 12.5 µg/g (gray mold of cucumber; [6]): 75%
- inhibition of growth at 25 µg/g (gray mold of cucumber; Concentration 25 μg/g, Table 8): 87%
- inhibition of growth at 50 µg/g (gray mold of cucumber; Concentration 50 μg/g, Table 8): 91%
- inhibition of growth at 100 µg/g (gray mold of cucumber; Table 6): 95%
- melting point: 199 to 201 °C
- inhibition of growth at 100 µg/g (wheat scab): 58%
- inhibition of growth at 12.5 µg/g [5, 6]: 78%
- inhibition of growth at 25 µg/g ([5]; Concentration 25 μg/g, Table 8): 88%
- inhibition of growth at 50 µg/g ([5]; Concentration 50 μg/g, Table 8): 96%
- inhibition of growth at 100 µg/g ([5]; testing concentration of 100 μg/g, Table 6, read-out: Sheath and culm blight of rice Average inhibition rate (%)): 97%

SMILES: Cc1ncc(Cn2cc(COC(=O)c3ccc([N+](=O)[O-])cc3)nn2)c(N)n1 [Compound 32]
- inhibition of growth at 100 µg/g (early blight of tomato; Table 5): 63%
- pest or weed control at 500 µg/g [1]: 60%
- inhibition of growth at 100 µg/g (anthracnose of cucumber): 67%
- pest or weed control at 500 µg/g [3]: 60%
- inhibition of growth at 100 µg/g (gray mold of cucumber; Table 4): 59%
- inhibition of growth at 100 µg/g (tobacco brown spot): 87%

SMILES: Cc1ncc(Cn2cc(COC(=O)c3ccc(Cl)cc3)nn2)c(N)n1 [Compound 33]
- pest or weed control at 500 µg/g [1]: 60%
- pest or weed control at 500 µg/g [3]: 55%
- inhibition of growth at 100 µg/g (gray mold of cucumber; Table 4): 61%
- melting point: 188 to 189 °C
- inhibition of growth at 100 µg/g (wheat scab): 55%
